A short description of assay [1]: Inhibition of amyloid beta (1 to 42) self aggregation at 20 uM after 48 hrs by thioflavin T fluorescence assay.
Another assay addresses Cholinesterase (Equus caballus, UniProt P81908).
Another assay addresses Acetylcholinesterase (Electrophorus electricus, UniProt O42275).
The target of assay [2] is Acetylcholinesterase (Electrophorus electricus) (UniProt O42275). Kind of assay: Ratio of IC50 for tarcine to compound for electric eel AChE using acetylcholine as substrate by Ellman's method. On the technique in general: In Ellman's method for cholinesterases, released thiocholine reacts with DTNB.
Acetylcholinesterase (Electrophorus electricus), sequence (O42275 24-633 limits assumed): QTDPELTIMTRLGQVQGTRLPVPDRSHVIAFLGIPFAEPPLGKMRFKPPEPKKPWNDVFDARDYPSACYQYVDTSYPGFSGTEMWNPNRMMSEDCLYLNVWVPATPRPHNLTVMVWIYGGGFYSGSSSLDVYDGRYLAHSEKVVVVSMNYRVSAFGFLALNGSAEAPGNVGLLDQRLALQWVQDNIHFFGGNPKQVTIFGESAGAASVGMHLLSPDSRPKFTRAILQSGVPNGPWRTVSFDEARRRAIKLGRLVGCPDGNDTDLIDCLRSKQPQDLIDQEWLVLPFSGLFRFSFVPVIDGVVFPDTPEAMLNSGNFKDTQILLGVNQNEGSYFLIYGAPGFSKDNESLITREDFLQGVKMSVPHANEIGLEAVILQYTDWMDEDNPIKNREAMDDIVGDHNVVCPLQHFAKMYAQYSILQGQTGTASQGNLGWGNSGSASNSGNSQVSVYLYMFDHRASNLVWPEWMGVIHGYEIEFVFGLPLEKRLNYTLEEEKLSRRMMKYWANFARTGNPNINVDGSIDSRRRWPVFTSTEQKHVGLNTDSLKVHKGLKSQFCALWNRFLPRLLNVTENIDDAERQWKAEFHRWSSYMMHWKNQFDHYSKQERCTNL
The target is the same in assay [3]. Kind of assay: Mixed-type inhibition of electric eel AChE using acetylcholine as substrate after 15 mins by Lineweaver-Burk plot analysis.

Active and inactive are the calls of the source. No cut-off for these calls is given here.

Consider 19 compounds from ChEMBL document CHEMBL2021783, “Inhibition of cholinesterase activity and amyloid aggregation by berberine-phenyl-benzoheterocyclic and tacrine-phenyl-benzoheterocyclic hybrids” (Bioorg Med Chem, 2012).

The term inhibition denotes the change of the read-out against control, counted positive when it falls. As a reminder, the IC50 is the concentration that gives 50% inhibition.

Cholinesterase, sequence (P81908 whole entry): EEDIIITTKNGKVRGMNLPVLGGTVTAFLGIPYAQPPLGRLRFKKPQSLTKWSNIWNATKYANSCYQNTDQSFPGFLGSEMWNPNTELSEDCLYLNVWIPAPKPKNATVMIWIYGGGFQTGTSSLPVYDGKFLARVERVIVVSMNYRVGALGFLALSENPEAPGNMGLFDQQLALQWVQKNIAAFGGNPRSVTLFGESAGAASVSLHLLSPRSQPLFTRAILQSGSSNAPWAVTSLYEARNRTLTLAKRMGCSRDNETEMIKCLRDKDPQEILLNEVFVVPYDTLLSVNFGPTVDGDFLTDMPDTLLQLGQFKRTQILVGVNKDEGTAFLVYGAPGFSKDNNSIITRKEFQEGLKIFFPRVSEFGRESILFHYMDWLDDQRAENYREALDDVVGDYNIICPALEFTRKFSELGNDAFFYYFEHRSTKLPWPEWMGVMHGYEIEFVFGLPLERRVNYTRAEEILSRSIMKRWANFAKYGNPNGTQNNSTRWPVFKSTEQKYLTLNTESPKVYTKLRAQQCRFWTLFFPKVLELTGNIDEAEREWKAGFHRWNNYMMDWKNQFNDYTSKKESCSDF
Acetylcholinesterase, sequence (O42275 whole entry): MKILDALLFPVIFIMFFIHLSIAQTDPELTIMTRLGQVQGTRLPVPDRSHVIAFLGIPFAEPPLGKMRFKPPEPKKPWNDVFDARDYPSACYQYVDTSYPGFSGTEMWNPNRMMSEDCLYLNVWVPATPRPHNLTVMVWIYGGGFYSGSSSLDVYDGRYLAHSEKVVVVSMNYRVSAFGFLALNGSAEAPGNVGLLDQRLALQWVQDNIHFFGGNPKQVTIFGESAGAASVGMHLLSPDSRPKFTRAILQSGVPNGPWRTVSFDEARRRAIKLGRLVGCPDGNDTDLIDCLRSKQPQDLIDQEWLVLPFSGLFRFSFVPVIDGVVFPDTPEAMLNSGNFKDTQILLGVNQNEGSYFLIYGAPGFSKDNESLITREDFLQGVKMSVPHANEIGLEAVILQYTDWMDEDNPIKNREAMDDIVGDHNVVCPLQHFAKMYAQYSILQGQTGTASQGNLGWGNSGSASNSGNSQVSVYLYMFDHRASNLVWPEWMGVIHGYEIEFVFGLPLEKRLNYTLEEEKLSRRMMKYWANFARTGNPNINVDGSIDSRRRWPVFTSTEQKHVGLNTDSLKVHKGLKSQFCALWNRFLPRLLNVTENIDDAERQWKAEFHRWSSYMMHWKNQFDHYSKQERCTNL

Compound `COc1ccc2cc3[n+](cc2c1OCCCNC(=O)c1cc2ccccc2[nH]1)CCc1cc2c(cc1-3)OCO2` showed an inhibition in assay [1] of 73.5%. Also, the IC50 was found to be 2190 nM at Cholinesterase and 976 nM against Acetylcholinesterase.
For `c1ccc2sc(-c3ccc(OCCCCCCNc4c5c(nc6ccccc46)CCCC5)cc3)nc2c1`, in that order: 41.9%, 82 nM and 93 nM.
For `c1ccc2sc(-c3ccc(OCCCCNc4c5c(nc6ccccc46)CCCC5)cc3)nc2c1`, in that order: 37.8%, 186 nM and 105 nM.
Taken in the same sequence, the figures for `COc1ccc2cc3[n+](cc2c1OCCCNC(=O)c1cc2ccccc2o1)CCc1cc2c(cc1-3)OCO2` were 69.1%, 1540 nM and 1940 nM.
In assay [1], `COc1ccc2cc3[n+](cc2c1OC)CCc1cc2c(cc1-3)OCO2` had an inhibition of 36.3%.
Compound `COc1ccc2cc3[n+](cc2c1OCCOc1ccc(-c2cc4ccccc4o2)cc1)CCc1cc2c(cc1-3)OCO2` gave an IC50 against Acetylcholinesterase of 3590 nM.
Regarding `c1ccc2oc(-c3ccc(OCCCCNc4c5c(nc6ccccc46)CCCC5)cc3)nc2c1`, in assay [1], the inhibition is 33.2%. Moreover, the IC50 amounted to 207 nM against Cholinesterase and 947 nM at Acetylcholinesterase.
With `COc1ccc2cc3[n+](cc2c1OCCOc1ccc(-c2nc4ccccc4s2)cc1)CCc1cc2c(cc1-3)OCO2`, the IC50 against Cholinesterase came out at 175 nM; on Acetylcholinesterase, 1640 nM.
Taken in the same sequence, the figures for `COc1ccc2cc3[n+](cc2c1OCCCOc1ccc(-c2nc4ccccc4o2)cc1)CCc1cc2c(cc1-3)OCO2` were 639 nM and 2120 nM.
On to `COc1ccc2cc3[n+](cc2c1OCCCOc1ccc(-c2nc4ccccc4s2)cc1)CCc1cc2c(cc1-3)OCO2`, for which the inhibition in assay [1] was found to be 79.2%. For the same compound, the IC50 stood at 587 nM against Cholinesterase and 1480 nM on Acetylcholinesterase.
In the case of `COc1ccc2cc3[n+](cc2c1OCCOc1ccc(-c2cc4ccccc4[nH]2)cc1)CCc1cc2c(cc1-3)OCO2`, on Acetylcholinesterase, it took 1070 nM to reach half-maximal inhibition (IC50).
`c1ccc2oc(-c3ccc(OCCCCNc4c5c(nc6ccccc46)CCCC5)cc3)cc2c1`: the inhibition in assay [1] came out at 46.3%. The IC50 at Cholinesterase was found to be 238 nM; against Acetylcholinesterase it was 201 nM.
At Acetylcholinesterase, `COc1ccc2cc3[n+](cc2c1OCCOc1ccc(-c2nc4ccccc4o2)cc1)CCc1cc2c(cc1-3)OCO2` yielded an IC50 of 3300 nM.
Take `COc1ccc2cc3[n+](cc2c1OCCCOc1ccc(-c2cc4ccccc4[nH]2)cc1)CCc1cc2c(cc1-3)OCO2`: the IC50 against Cholinesterase turned out to be 711 nM; against Acetylcholinesterase, 774 nM.
The compound `COc1ccc2cc3[n+](cc2c1OCCCOc1ccc(-c2cc4ccccc4o2)cc1)CCc1cc2c(cc1-3)OCO2` showed an inhibition in assay [1] of 84.6%. Besides, the values for the IC50 at Cholinesterase and on Acetylcholinesterase were 990 nM and 1920 nM, respectively.
The compound `c1ccc2oc(-c3ccc(OCCCNc4c5c(nc6ccccc46)CCCC5)cc3)nc2c1` registered an inhibition in assay [1] of 57.6%. In addition, the figures for the IC50 at Cholinesterase and against Acetylcholinesterase were 352 nM and 475 nM, respectively.
For `c1ccc2oc(-c3ccc(OCCCNc4c5c(nc6ccccc46)CCCC5)cc3)cc2c1`, in that order: 62.8%, 156 nM and 58 nM.
For `c1ccc2sc(-c3ccc(OCCCNc4c5c(nc6ccccc46)CCCC5)cc3)nc2c1`, in assay [2], the Ratio IC50 came out at 18. In addition, the inhibition entry in assay [3] was “Active”. This compound showed an inhibition in assay [1] of 51.8%. In addition, the IC50 is 122 nM at Cholinesterase and 17 nM at Acetylcholinesterase.
`c1ccc2sc(-c3ccc(OCCCCCNc4c5c(nc6ccccc46)CCCC5)cc3)nc2c1` yielded an inhibition in assay [1] of 40.7%. Moreover, the IC50 came out at 171 nM against Cholinesterase and 40 nM against Acetylcholinesterase.
